In general, IC50 refers to the concentration needed to halve the response being measured.

In the assay the target is T1, high-affinity (BLT1) LTB4 receptor (Homo sapiens, UniProt Q15722).
T1 construct: expressed in transfected cells
In words: FLIPR calcium release assay (LTB4-induced calcium mobilization). It is filed as cell-based. Particulars: CHO-K1 cells expressing BLT1, 8 nM LTB4, n of 2. The method, then:
hBLT1/CHO-K1 Stable Xcell Line Preparations: Human BLT1 receptor DNA (National Center for Biotechnology Information (NCBI), Reference Sequence NM_181657) is synthesized and cloned into expression vector pcDNA3.1/Hygro(+) (Invitrogen V87020). The cDNA expression vector construct is transfected into Chinese hamster ovary (CHO-K1) cells (American Type Culture Collection (ATCC) CCL-61) using Lipofectamine 2000 (Invitrogen) as transfection reagent. Cells are cultured in selective Dulbecco's Modified Eagle Medium (DMEM) containing 200 μg/mL Hygromycin, 24 hours post transfection. Single clones are isolated and screened for BLT1 expression and function using Western Blot analysis and Fluorometric Imaging Plate Reader (FLIPR®) calcium release assay.
Chinese hamster ovary (CHO-K1) cells stably expressing the high-affinity (BLT1) LTB4 receptor are seeded at 10,000 cells/well in a 96 well plate (Corning) in growth medium containing DMEM/F-12 (3:1) w/o phenol red (Invitrogen), 5% fetal bovine serum (FBS) (Hyclone), 20 mM HEPES (Invitrogen), 200 μg/mL Hygromycin B (Invitrogen) and 40 μg/mL L-Proline (Sigma). The plate is incubated for 22-24 h at 37° C. 5% CO2 then growth medium is replaced with 50 μL/well of test medium containing Roswell Park Memorial Institute (RPMI) RPMI-1640 w/o phenol red, 20 mM HEPES (both from Invitrogen), and 0.2% w/v Bovine Serum Albumin (Sigma). […]

T1 sequence (Q15722 whole entry): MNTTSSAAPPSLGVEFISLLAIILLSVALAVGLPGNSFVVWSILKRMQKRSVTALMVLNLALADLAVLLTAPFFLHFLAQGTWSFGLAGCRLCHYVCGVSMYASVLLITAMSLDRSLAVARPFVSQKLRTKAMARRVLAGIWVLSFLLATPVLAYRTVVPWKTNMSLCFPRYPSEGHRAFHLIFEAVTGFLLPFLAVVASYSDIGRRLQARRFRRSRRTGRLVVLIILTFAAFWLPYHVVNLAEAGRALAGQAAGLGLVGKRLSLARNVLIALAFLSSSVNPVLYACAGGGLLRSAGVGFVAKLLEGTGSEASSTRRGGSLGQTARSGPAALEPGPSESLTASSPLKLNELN

`CCCc1c(NC(=O)CC(C)(C)C(=O)[O-])cccc1OCCCOc1cc(O)c(-c2ccc(F)cc2)cc1CC.[Na+]` [Example 2, Sodium 4-[[3-[3-[2-ethyl-4-(4-fluorophenyl)-5-hydroxy-phenoxy]propoxy]-2-propyl-phenyl]amino]-2,2-dimethyl-4-oxo-butanoate]: the Kb (read-out: inhibition of LTB4-induced calcium mobilization Kb) stood at 0.98 nM. Further, the IC50 (read-out: inhibition of LTB4-induced calcium mobilization relative IC50) is 6.48 nM.

The values above are taken from patent US9187411B2, “Leukotriene B4 antagonist compound” (Eli Lilly and Company, priority 2012, dated 2015).
